Data: US20210069189A1, “TREATMENT OF NEURODEGENERATIVE DISEASES” (BENEVOLENTAI BIO LIMITED, priority 2017, published 2021)

Experiments:
[1] = tested on: murine Hb9-GFP+ motor neurons co-cultured with ALS patient-derived iAstrocytes; test: ALS patient iAstrocyte / mouse Hb9-GFP+ motor neuron co-culture, motor neuron survival; type: cell-based, human iAstrocytes; conditions: iAstrocytes pre-treated 24 hours with various concentrations; viable motor neurons at 72 h as percentage of 24 h, normalised to DMSO control; FIG. 2
Experimental: ALS iAstrocytes were pre-treated with various concentrations of nilotinib, bafetinib or bosutinib for 24 hours, prior to murine Hb9-GFP motor neuron seeding in co-culture. The number of viable motor neurons was then measured 24 and 72 hours after motor neuron seeding, and the percentage motor neuron survival was calculated, and then normalised to the untreated control of the respective line. *P<0.05, **P<0.01, ***P<0.001. One-way ANOVA with Dunnett's post-hoc test. Data are mean±SD. n=5-6.
This example describes the effect of nilotinib, bafetinib and bosutinib on motor neuron survival in an in vitro model of ALS. This model uses human fibroblast-derived astrocytes and mouse Hb9−GFP+ motor neurons in co-culture (Meyer et al., 2014, PNAS 111, 829-832). The fibroblasts were reprogrammed to induced neural progenitor cells (iNPCs), which were differentiated into Astrocytes. Astrocytes derived from ALS patients cause death of the wild-type Hb9−GFP+ mouse motor neurons in co-culture, a property not seen in astrocytes derived from normal (non-ALS) patients. […]
3,000 human iAstrocytes were seeded per well on fibronectin-coated 384-well plates. […] Hb9− GFP+ motor neurons were imaged after 24 and 72 hours using an INCELL analyser 2000 (GE Healthcare), and the number of viable motor neurons was counted using the INCELL analyser software (GE Healthcare).
The number of viable motor neurons (defined as GFP+ motor neurons with at least 1 axon) 25 that survived after 72 hours in co-culture was calculated as a percentage of the number of viable motor neurons after 24 hours in co-culture. […]

[2] = tested on: ALS; conditions: ALS patients; cited from earlier work
[3] = tested on: SOD1^G93A mouse model of ALS; conditions: cited from earlier work
[4] = target: P-glycoprotein (P-gp) (Homo sapiens, UniProt P08183); conditions: cited from earlier work
P-glycoprotein (P-gp), sequence (P08183 whole entry): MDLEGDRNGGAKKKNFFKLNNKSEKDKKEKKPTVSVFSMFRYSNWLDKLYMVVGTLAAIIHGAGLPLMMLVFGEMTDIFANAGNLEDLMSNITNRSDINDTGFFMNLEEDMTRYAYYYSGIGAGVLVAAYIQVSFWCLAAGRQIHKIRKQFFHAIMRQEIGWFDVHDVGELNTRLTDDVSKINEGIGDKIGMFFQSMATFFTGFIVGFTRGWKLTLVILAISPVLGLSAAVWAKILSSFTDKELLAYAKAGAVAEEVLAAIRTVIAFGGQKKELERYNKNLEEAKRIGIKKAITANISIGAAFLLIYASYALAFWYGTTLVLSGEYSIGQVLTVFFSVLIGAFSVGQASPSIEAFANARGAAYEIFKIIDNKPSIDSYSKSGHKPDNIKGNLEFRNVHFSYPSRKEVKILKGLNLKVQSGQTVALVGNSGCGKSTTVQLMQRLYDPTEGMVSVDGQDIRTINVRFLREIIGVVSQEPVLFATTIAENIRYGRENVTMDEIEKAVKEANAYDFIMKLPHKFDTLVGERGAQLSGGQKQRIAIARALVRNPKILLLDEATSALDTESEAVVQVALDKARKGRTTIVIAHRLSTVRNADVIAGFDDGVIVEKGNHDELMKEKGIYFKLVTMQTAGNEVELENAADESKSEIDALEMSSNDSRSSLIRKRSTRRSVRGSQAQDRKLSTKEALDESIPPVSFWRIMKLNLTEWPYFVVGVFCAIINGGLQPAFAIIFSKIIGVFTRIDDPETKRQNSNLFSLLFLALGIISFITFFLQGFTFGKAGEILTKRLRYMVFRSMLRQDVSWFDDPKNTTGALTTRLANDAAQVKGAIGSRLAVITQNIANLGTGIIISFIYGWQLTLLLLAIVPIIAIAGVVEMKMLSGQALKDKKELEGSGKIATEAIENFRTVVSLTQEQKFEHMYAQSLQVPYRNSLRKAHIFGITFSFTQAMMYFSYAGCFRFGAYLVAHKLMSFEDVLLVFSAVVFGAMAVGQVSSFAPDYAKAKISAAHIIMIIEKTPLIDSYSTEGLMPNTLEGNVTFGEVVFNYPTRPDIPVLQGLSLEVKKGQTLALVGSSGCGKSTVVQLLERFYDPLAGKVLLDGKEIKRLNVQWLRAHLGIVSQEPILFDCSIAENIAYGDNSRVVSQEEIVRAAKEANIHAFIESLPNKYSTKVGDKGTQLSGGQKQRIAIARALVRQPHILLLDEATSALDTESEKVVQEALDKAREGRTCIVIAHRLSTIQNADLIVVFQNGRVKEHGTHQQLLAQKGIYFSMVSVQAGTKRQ

Question: Which motor neuron survival [1] does the source give for `Cc1ccc(NC(=O)c2ccc(CN3CCN(C)CC3)cc2)cc1Nc1nc(-c2cccnc2)cs1` [masitinib] here?
Answer: no such increase in survival

Question: For `Nc1nc2ccc(OC(F)(F)F)cc2s1` [Riluzole], which prolongation of life [2] is on record?
Answer: 2-3 months

Question: Which motor neuron survival [1] does the source give for `C=CC(=O)Nc1cc2c(Nc3ccc(F)c(Cl)c3)ncnc2cc1OCCCN1CCOCC1` [canertinib] here?
Answer: no such increase in survival

Question: With `C#Cc1cccc(Nc2ncnc3cc(OCCOC)c(OCCOC)cc23)c1` [erlotinib] as the compound, how does the lifespan [3] read?
Answer: failed to extend lifespan

Question: And the “penetration into the central nervous system” value [3]?
Answer: penetrated into the central nervous system

Question: And the “protection of motor synapses” value [3]?
Answer: did not protect motor synapses

Question: What about the “symptom delay (disease onset and progression)” value [3] of the same compound?
Answer: modest yet statistically significant symptom delay

Question: For `Cc1cn(-c2cc(NC(=O)c3ccc(C)c(Nc4nccc(-c5cccnc5)n4)c3)cc(C(F)(F)F)c2)cn1` [nilotinib], which P-glycoprotein substrate [4] is on record?
Answer: P-glycoprotein (P-gp) substrate

Question: And the motor neuron survival [1]?
Answer: dose-dependent increase in motor neuron survival
